This note sets out measurements from patent US11247965B2 (VenatoRx Pharmaceuticals, Inc., priority 2017, dated 2022).

One may read the CC50 as the concentration at which the toxic effect on the cells reaches its halfway point. Low readings indicate greater toxicity to the cells, high ones lower toxicity to the cells. The term pEC50 denotes −log10 of the EC50, conventionally taken in molar units.

SMILES strings stand for the structures. pEC50: −log10 of the molar value.

Data set [1] is described as follows: In vitro cytotoxicity, MTT cell viability assay in HepG2 cells. Type of data set: cell-based. The conditions noted are these: human, Cytotoxicity CC50. Summed up: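 HepG2 cells incubated 7 days at 37 °C, 5% CO2 with compounds from 30 μM to 1.0 nM (8 half-log dilutions). Viability read as MTT formazan absorbance at 492 nm, normalised to vehicle controls; CC50 from 4-parameter non-linear regression.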

The subject of data set [2] is HBV replication in HepAD38 cells. Nature of the data set: Anti-HBV activity in HepAD38 cells, extracellular HBV DNA by QPCR. It is filed as cell-based, HBV (genotype D, serotype ayw). As to conditions: Hepatitis B virus, HePAD38, 168 h, read-out: Anti-HBV EC50, HepAD38 cells, extracellular HBV DNA by QPCR, 7 days of incubation. Summed up:
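Seven-day compound exposure (30 μM down to 10 nM, half-log steps) after tetracycline withdrawal induced HBV replication in HepAD38 cells. Extracellular viral DNA measured by QPCR (copies/mL via standard curve), normalised to DMSO wells; EC50 from 4-parameter non-linear regression.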

As to `COC(=O)N1C[C@H]2COC[C@@H](C1)N2C(=O)C(F)(F)c1cc(C(=O)Nc2ccc(F)c(C)c2)ccc1F` [Example 239, methyl (1R,5S)-9-(2,2-difluoro-2-(2-fluoro-5-((4-fluoro-3-methylphenyl)carbamoyl)phenyl)acetyl)-3-oxa-7,9-diazabicyclo[3.3.1]nonane-7-carboxylate], the CC50 at 7 days in data set [1] lay in the range of 5 to 30 µM. Also, in data set [2], the negative-log EC50 (pEC50) was more than 5.30.

Regarding `Cc1cc(NC(=O)c2ccc(F)c(C(F)(F)C(=O)N3CC(F)(F)CC3C(=O)O)c2)ccc1F` (stereo not drawn) [Example 161, 1-(2,2-difluoro-2-(2-fluoro-5-((4-fluoro-3-methylphenyl)carbamoyl)phenyl)acetyl)-4,4-difluoropyrrolidine-2-carboxylic acid], in data set [1], the cytotoxic concentration (CC50) at 7 days is more than 30 µM. The pEC50 in data set [2] is 4.52 to 5.30.

Take `C[C@H](NC(=O)C(F)(F)c1c(C(=O)Nc2ccc(F)c(Cl)c2)ccn1C)C(F)(F)F` [Example 141]: the CC50 at 7 days in data set [1] is more than 30 µM. In addition, the negative logarithm of the EC50 (pEC50) in data set [2] is 4.52 to 5.30.

In data set [1], `Cc1cc(NC(=O)c2ccc(F)c(C(F)(F)C(=O)N3CCC(C)(O)CC3)c2)ccc1F` [Example 70, 3-(1,1-difluoro-2-(4-hydroxy-4-methylpiperidin-1-yl)-2-oxoethyl)-4-fluoro-N-(4-fluoro-3-methylphenyl)benzamide] came in with a CC50 at 7 days of 5 to 30 µM. Moreover, in data set [2], the negative logarithm of the EC50 (pEC50) was more than 5.30.

`Cc1cc(NC(=O)c2ccnc(C(F)(F)C(=O)N3[C@@H]4CC[C@H]3C[C@H](C(=O)O)C4)c2)ccc1F` [Example 282, (1R,3s,5S)-8-(2,2-difluoro-2-(4-((4-fluoro-3-methylphenyl)carbamoyl)pyridin-2-yl)acetyl)-8-azabicyclo[3.2.1]octane-3-carboxylic acid]: the CC50 at 7 days in data set [1] was more than 30 µM. Besides, the negative-log EC50 (pEC50) in data set [2] was 4.52 to 5.30.

`Cc1cc(NC(=O)c2ccc([C@@H](O)CO)c(C(F)(F)C(=O)NC(C)(C)C)c2)ccc1F` [Example 117, (R)-3-(2-(tert-butylamino)-1,1-difluoro-2-oxoethyl)-4-(1,2-dihydroxyethyl)-N-(4-fluoro-3-methylphenyl)benzamide] showed a CC50 at 7 days in data set [1] of more than 30 µM. For the same molecule, the negative-log EC50 (pEC50) in data set [2] is less than 4.52.

In the case of `COc1ccc(C(F)(F)C(=O)N2CCC(O)CC2)cc1C(=O)Nc1ccc(F)c(C)c1` [Example 91, 5-(1,1-difluoro-2-(4-hydroxypiperidin-1-yl)-2-oxoethyl)-N-(4-fluoro-3-methylphenyl)-2-methoxybenzamide], the CC50 at 7 days in data set [1] is more than 30 µM. The pEC50 in data set [2] is less than 4.52.

For `O=C(Nc1ccc(F)cc1)c1ccc(Cl)c(C(F)(F)C(=O)N2CCC(O)CC2)c1` [Example 36, 4-chloro-3-(1,1-difluoro-2-(4-hydroxypiperidin-1-yl)-2-oxoethyl)-N-(4-fluorophenyl)benzamide], the CC50 at 7 days in data set [1] was more than 30 µM. Moreover, the negative-log EC50 (pEC50) in data set [2] is more than 5.30.

In data set [1], `Cc1cc(NC(=O)c2ccc(F)c(C(F)(F)C(=O)N3CCC(O)(CO)CC3)c2)ccc1F` [Example 75, 3-(1,1-difluoro-2-(4-hydroxy-4-(hydroxymethyl)piperidin-1-yl)-2-oxoethyl)-4-fluoro-N-(4-fluoro-3-methylphenyl)benzamide] displayed a CC50 at 7 days of 5 to 30 µM. Also, in data set [2], the negative logarithm of the EC50 (pEC50) was more than 5.30.

In data set [1], `Cc1cc(NC(=O)c2ccc(F)c(C(F)(F)C(=O)N3CCC(O)C(F)C3)c2)ccc1F` (stereo not drawn) [Example 162, 3-(1,1-difluoro-2-(3-fluoro-4-hydroxypiperidin-1-yl)-2-oxoethyl)-4-fluoro-N-(4-fluoro-3-methylphenyl)benzamide] yielded a CC50 at 7 days of 5 to 30 µM. Moreover, the negative logarithm of the EC50 (pEC50) in data set [2] was more than 5.30.

Molecule `CN(C(=O)c1ccc(Cl)c(C(F)(F)C(=O)N2CCC(O)CC2)c1)c1ccc(Cl)cc1` [Example 40, 4-chloro-N-(4-chlorophenyl)-3-(1,1-difluoro-2-(4-hydroxypiperidin-1-yl)-2-oxoethyl)-N-methylbenzamide] came in with a half-maximal cytotoxic concentration (CC50) at 7 days in data set [1] of more than 30 µM. Also, in data set [2], the pEC50 is less than 4.52.

In the case of `Cc1cc(NC(=O)c2ccc(F)c(C(F)(F)C(=O)N3CCc4[nH]nnc4C3)c2)ccc1F` [Example 270, 3-(1,1-difluoro-2-oxo-2-(1,4,6,7-tetrahydro-5H-[1,2,3]-triazolo[4,5-c]pyridin-5-yl)ethyl)-4-fluoro-N-(4-fluoro-3-methylphenyl)benzamide], the cytotoxic concentration (CC50) at 7 days in data set [1] is 5 to 30 µM. In addition, the negative-log EC50 (pEC50) in data set [2] was more than 5.30.

The molecule `O=C(Nc1cc(F)c(F)c(F)c1)c1ccc(F)c(C(F)(F)C(=O)N2CCC(O)(CO)CC2)c1` [Example 174, 3-(1,1-difluoro-2-(4-hydroxy-4-(hydroxymethyl)piperidin-1-yl)-2-oxoethyl)-4-fluoro-N-(3,4,5-trifluorophenyl)benzamide] returned a CC50 at 7 days in data set [1] of 5 to 30 µM. The pEC50 in data set [2] is more than 5.30.

`Cc1cc(NC(=O)c2ccn(C)c2C(F)(F)C(=O)NC(C)(C)C)ccc1F` [Example 101, 2-(2-(tert-butylamino)-1,1-difluoro-2-oxoethyl)-N-(4-fluoro-3-methylphenyl)-1-methyl-1H-pyrrole-3-carboxamide]: the CC50 at 7 days in data set [1] was more than 30 µM. In data set [2], the negative-log EC50 (pEC50) is more than 5.30.

In data set [1], `Cc1cc(NC(=O)c2ccnc(C(F)(F)C(=O)N3CCc4nc(N)sc4C3)c2)ccc1F` [Example 268, 2-(2-(2-amino-6,7-dihydrothiazolo[5,4-c]pyridin-5(4H)-yl)-1,1-difluoro-2-oxoethyl)-N-(4-fluoro-3-methylphenyl)isonicotinamide] had a CC50 at 7 days of more than 30 µM. Further, the negative logarithm of the EC50 (pEC50) in data set [2] is 4.52 to 5.30.

Consider `C=Cc1ccc(C(=O)Nc2ccc(F)c(C)c2)cc1C(F)(F)C(=O)N1CCC(O)CC1` [Example 115, 3-(1,1-difluoro-2-(4-hydroxypiperidin-1-yl)-2-oxoethyl)-N-(4-fluoro-3-methylphenyl)-4-vinylbenzamide], for which the 50% cytotoxic concentration (CC50) at 7 days in data set [1] was more than 30 µM. Besides, in data set [2], the pEC50 was more than 5.30.

As for `COc1cc(NC(=O)c2ccc(Cl)c(C(F)(F)C(=O)N3CCC(O)CC3)c2)cc(F)c1F` [Example 61, 4-chloro-3-(1,1-difluoro-2-(4-hydroxypiperidin-1-yl)-2-oxoethyl)-N-(3,4-difluoro-5-methoxyphenyl)benzamide], the CC50 at 7 days in data set [1] is more than 30 µM. For the same molecule, the pEC50 in data set [2] is 4.52 to 5.30.

With `Cc1cc(NC(=O)c2ccc(F)c(C(F)(F)C(=O)N3CCN4C(=O)NCC4C3)c2)ccc1F` (stereo not drawn) [Example 264, 3-(1,1-difluoro-2-oxo-2-(3-oxohexahydroimidazo[1,5-a]pyrazin-7(1H)-yl)ethyl)-4-fluoro-N-(4-fluoro-3-methylphenyl)benzamide], the 50% cytotoxic concentration (CC50) at 7 days in data set [1] is more than 30 µM. Besides, in data set [2], the pEC50 is more than 5.30.

As to `Cc1ccc(C(=O)Nc2ccc(F)c(Cl)c2)cc1C(F)(F)C(=O)N1[C@@H]2CC[C@H]1C[C@H](O)C2` [Example 206, N-(3-chloro-4-fluorophenyl)-3-(1,1-difluoro-2-((1R,3s,5S)-3-hydroxy-8-azabicyclo[3.2.1]octan-8-yl)-2-oxoethyl)-4-methylbenzamide], the CC50 at 7 days in data set [1] lay in the range of 5 to 30 µM. Also, the pEC50 in data set [2] was more than 5.30.

Regarding `CO[C@H]1CC2CC[C@H](C1)N2C(=O)C(F)(F)c1cc(C(=O)Nc2ccc(F)c(C)c2)ccc1F` [Example 277, 3-(1,1-difluoro-2-((1R,3s,5S)-3-methoxy-8-azabicyclo[3.2.1]octan-8-yl)-2-oxoethyl)-4-fluoro-N-(4-fluoro-3-methylphenyl)benzamide], the CC50 at 7 days in data set [1] is 5 to 30 µM. Further, in data set [2], the pEC50 is more than 5.30.

With `Cc1cc(NC(=O)c2ccc(F)c(C(F)(F)C(=O)N[C@@H]3CCOC3=O)c2)ccc1F` [Example 84, (R)-3-(1,1-difluoro-2-oxo-2-((2-oxotetrahydrofuran-3-yl)amino)ethyl)-4-fluoro-N-(4-fluoro-3-methylphenyl)benzamide], the CC50 at 7 days in data set [1] was more than 30 µM. Also, the negative-log EC50 (pEC50) in data set [2] was less than 4.52.

Regarding `N#Cc1cc(NC(=O)c2ccc(F)c(C(F)(F)C(=O)N3CCC(O)C(F)(F)C3)c2)ccc1F` (stereo not drawn) [Example 177, N-(3-cyano-4-fluorophenyl)-3-(2-(3,3-difluoro-4-hydroxypiperidin-1-yl)-1,1-difluoro-2-oxoethyl)-4-fluorobenzamide], the CC50 at 7 days in data set [1] is 5 to 30 µM. Besides, the negative-log EC50 (pEC50) in data set [2] is more than 5.30.

In turn, `Cc1cc(NC(=O)c2ccc(F)c(C(F)(F)C(=O)N3[C@@H]4CC[C@H]3C[C@H](O)C4)c2)ccc1F` [Example 163, 3-(1,1-difluoro-2-((1R,3s,5S)-3-hydroxy-8-azabicyclo[3.2.1]octan-8-yl)-2-oxoethyl)-4-fluoro-N-(4-fluoro-3-methylphenyl)benzamide] gave a half-maximal cytotoxic concentration (CC50) at 7 days in data set [1] of 5 to 30 µM. For the same molecule, the negative logarithm of the EC50 (pEC50) in data set [2] is more than 5.30.

In the case of `Cc1cc(NC(=O)c2ccc(F)c(C(F)(F)C(=O)N3CC[C@H](O)C[C@H]3C)c2)ccc1F` [Example 255], the half-maximal cytotoxic concentration (CC50) at 7 days in data set [1] fell in the range of 5 to 30 µM. In data set [2], the pEC50 was more than 5.30.

In data set [1], `CC(=O)N1[C@H](C)CN(C(=O)C(F)(F)c2cc(C(=O)Nc3ccc(F)c(C)c3)ccc2F)C[C@@H]1C` [Example 295, 3-(2-((3R,5S)-4-acetyl-3,5-dimethylpiperazin-1-yl)-1,1-difluoro-2-oxoethyl)-4-fluoro-N-(4-fluoro-3-methylphenyl)benzamide] showed a CC50 at 7 days of 5 to 30 µM. For the same molecule, the pEC50 in data set [2] is more than 5.30.

With `CC(C)n1cc(NC(=O)c2ccc(F)c(C(F)(F)C(=O)N3CCC(O)(CO)CC3)c2)cn1` [Example 186, 3-(1,1-difluoro-2-(4-hydroxy-4-(hydroxymethyl)piperidin-1-yl)-2-oxoethyl)-4-fluoro-N-(1-isopropyl-1H-pyrazol-4-yl)benzamide], in data set [1], the 50% cytotoxic concentration (CC50) at 7 days was more than 30 µM. In addition, the pEC50 in data set [2] is 4.52 to 5.30.

Molecule `Cc1cc(NC(=O)c2cnc(C(F)(F)C(=O)N3CCC(O)CC3)s2)ccc1F` [Example 44, 2-(1,1-difluoro-2-(4-hydroxypiperidin-1-yl)-2-oxoethyl)-N-(4-fluoro-3-methylphenyl)thiazole-5-carboxamide] yielded a 50% cytotoxic concentration (CC50) at 7 days in data set [1] of more than 30 µM. The pEC50 in data set [2] is less than 4.52.
